How the values were obtained:
S. aureus ATCC 29213 = assay: Murine peritoneal sepsis model; format: in vivo, C57BL/6J mice; conditions: mice n = 5, i.p. treatment 1 h and 4 h post-infection; compound […], vancomycin/lysostaphin 5 mg/kg
Method: Mice were fed standard chow (Harlan Laboratories) and water ad libitum. […] Animals were closely observed during a period of 24 hours and mice that show signs of severe sepsis were humanely euthanized. Blood samples were collected by retro-orbital puncture at the indicated intervals post-infection using lithium-heparin polystyrene tubes to prevent coagulation. […] Whole blood samples and spleen homogenates were serially diluted and plated onto LB agar plates.

[1] = test system: Enterococcus faecalis (VRE) MMX848; assay: Broth microdilution susceptibility testing (CLSI); format: cell-based; conditions: Enterococcus faecalis, VRE, read-out: MIC Enterococcus faecalis (VRE) 848-NA
Method: (§1) The antibacterial activity of defensin mimetics against Staphylococcus aureus ATCC 29213 and Escherichia coli 25922 was carried out in a 96-well turbidimetric assay essentially as described previously with the following modifications: bacteria were exposed for 30 min to compounds in 10 mM phosphate buffer containing 5% DMSO prior to addition of 2× Muller-Hinton medium. Bacterial growth was monitored for 12 hours and data were analyzed as described. Determination of MICs was performed by Micromyx, LLC (Kalamazoo, Michigan) according to CLSI standards.

[2] = test system: Staphylococcus aureus (MRSA) MMX757; assay: Broth microdilution susceptibility testing (CLSI); format: cell-based; conditions: Staphylococcus aureus, MRSA, read-out: MIC Staphylococcus aureus (MRSA) 757-NA
Method: as §1

[3] = test system: Escherichia coli MMX102-ATCC 25922; assay: Broth microdilution susceptibility testing (CLSI); format: cell-based; conditions: for MIC: Escherichia coli, ATCC25922, read-out: MIC Escherichia coli 102-25922
Method: as §1

[4] = test system: Staphylococcus aureus MMX100-ATCC 29213; assay: Broth microdilution susceptibility testing (CLSI); format: cell-based; conditions: Staphylococcus aureus, ATCC29213, read-out: MIC Staphylococcus aureus 100-29213
Method: as §1

[5] = test system: Streptococcus pneumoniae MMX1195-ATCC 49619; assay: Broth microdilution susceptibility testing (CLSI); format: cell-based; conditions: Streptococcus pneumoniae, ATCC49619, read-out: MIC Streptococcus pneumoniae 1195-49619
Method: as §1

[6] = test system: Enterococcus faecalis MMX101-ATCC 29212; assay: Broth microdilution susceptibility testing (CLSI); format: cell-based; conditions: Enterococcus faecalis, ATCC29212, read-out: MIC Enterococcus faecalis 101-29212
Method: as §1

[7] = test system: Pseudomonas aeruginosa MMX103-ATCC 27853; assay: Broth microdilution susceptibility testing (CLSI); format: cell-based; conditions: Pseudomonas aeruginosa, ATCC27853, read-out: MIC Pseudomonas aeruginosa 103-27853
Method: as §1

human red blood cells = assay: Red Blood Cell (RBC) lysis; format: cell-based; conditions: human RBCs, 30 min, room temperature, up to 16× MIC
Method: The method described by Stasiuk et al. was followed in general. Defibrinated human blood (Valley BioMedical) was washed three times with buffer (10 mM Tris-HCl, pH 7.4, 0.9% NaCl) and resuspended to a final concentration of 3% RBCs immediately prior to performing the assay. One hundred eighty microliters of RBCs were added to 1020 µl buffer containing various concentrations of the investigational compound. […] DMSO alone (5% final concentration) served as the negative control to subtract the background, while a reaction with water substituted for buffer served as a positive control that completely lyses the RBCs. […] Incubation of compounds and RBCs proceeded for 30 minutes at room temperature, followed by centrifugation at 1,300× g for 5 minutes to pellet the RBCs. Finally, 300 µl of the supernatant was removed to a 96-well plate and the released hemoglobin was measured at A540 using a SpectraMax (Molecular Dynamics) plate reader. Prism (GraphPad) software was used for data analysis. Results were expressed as percent lysis compared to treatment of RBCs with deionized water, which completely ruptures the membrane. Analyses were performed by Micromyx, LLC (Kalamazoo, Michigan).

[8] = Cytotoxicity by MTT assay; format: cell-based, human; conditions: human, Jurkat cells; concentration resulting in 50% cell survival, MTT, 4 h; read-out: Cytotoxicity (C50%) Jurkat
LUV leakage assay = assay: LUV leakage assay
Method: Large unilamellar vesicles were prepared by the extrusion technique. Vesicles were made of Di-Palmoyl-Phosphatidyl Choline (DPPC, Avanti Polar Lipids) with or without 0.1 mol % Lipid II. Vesicles were prepared with 50 mM rhodamine, washed with saline solution and purified by G25 Sephadex column (GE healthcare). Compounds were diluted in saline solution in 96-well plate format and vesicles were added to each well. The increase of fluorescence intensity was measured at 612 nm (excitation at 544 nm) on a Molecular Dynamics spectrophotometer at 20 °C. Compound-induced leakage was expressed relative to the total amount of rhodamine released after lysis of the vesicles by addition of 10 µl of 20% Triton X-100.

Row | MIC [1] [µg/mL] | MIC [2] [µg/mL] | MIC Escherichia coli 102-25922 [3] [µg/mL] | MIC [3] [µg/mL] | MIC [4] [µg/mL] | MIC [5] [µg/mL] | MIC [6] [µg/mL] | MIC [7] [µg/mL] | lysis of red blood cells (human red blood cells) | Compound | survival (S. aureus ATCC 29213) | IC50 at 4 h [8] [µM] | leakage of LUVs (LUV leakage assay; 8 µg/ml (16× MIC for S. aureus)) | effect of Lipid II on compound-induced lysis of LUVs (LUV leakage assay; LUVs with vs without Lipid II) | membrane rupture in LUVs (LUV leakage assay; LUVs with or without Lipid II)
1 | 1 | 0.5 | 4 | 4 | 0.5 | 8 | 1 | > 8 | does not induce lysis of red blood cells | CN1/C(=C/C=C/c2cc(-c3ccccc3)cc(-c3ccccc3)[o+]2)C(C)(C)c2ccccc21 [BAS00127538, 2,4-diphenyl-6-[(1E)-3-[(2E)-1,3,3-trimethyl-2,3-dihydro-1H-indol-2-ylidene]prop-1-en-1-yl]-1$l^4-pyran-1-ylium] | 4 out of five animals | 14.5 | significant leakage | reduced by the presence of Lipid II | 
2 | 2 | 0.5 |  | > 16 | 0.25 | > 8 | 2 | > 16 | significant membrane rupture | CN(C)c1ccc(/C=C/c2cc(-c3ccccc3)[o+]c(-c3ccccc3)c2)cc1 [Compound 1499-1221] |  | 18.6 |  |  | significant membrane rupture in LUVs irrespective of Lipid II
